Test results: patent US20230183228A1, “SUBSTITUTED PYRAZOLYL COMPOUNDS AND METHODS OF USE THEREOF” (Chinook Therapeutics Canada, Inc., priority 2020, published 2023)
Marks after values point to notes of the source that are not given here.

How the values were obtained:
[1] = tested on: fresh primary mouse hepatocytes; test: Primary mouse hepatocyte assay (lactate production); format: cell-based; conditions: Run at 0.4M cells/well concentration of hepatocytes
Method: Compounds were evaluated in an ex vivo assay consisting of fresh primary mouse hepatocytes. Hepatocytes were isolated from wild type mice (C57BL/6NCrl from Charles River Labs) using a two-step collagenase perfusion technique which involves a sequential perfusion of anesthetized mice with Hanks' balanced salt solution and collagenase. Following isolation, viable wild type hepatocytes (0.1 M cells/well) were incubated with test compound in presence of pyruvate and compound potency was evaluated by measuring the lactate produced by the cells using liquid chromatography coupled to mass spectrometry. Chromatographic separation was achieved on an XDB-C18 4.6×50 mm column (Agilent, Cat #927975-902) at a flow rate of 1 mL/min Mobile phase A consisted of 0.1% formic acid in water and mobile phase B consisted of acetonitrile. A gradient program was initiated starting at 5% B which was held for 1 minutes, then ramped from 5% to 95% B over 1 minute. After holding at 95% B for 1 minute, the program changed back to 5% B. The column was equilibrated with 5% B for […] before the next injection. The mass spectrometer was operated in negative mode with electrospray ionization. The following transition along with their collision energy (CE) were used: 89→43 (CE: −16 V) for lactate and 92→45 (CE: −16 V) for ^13C3-Lactate (internal standard).

[2] = biological target: T1, human recombinant C-terminal His-tagged LDHA (Homo sapiens, UniProt P00338); test: Human LDHA enzyme assay; format: biochemical; conditions: 50 μM pyruvate, 50 μM NADH, no HSA
T1 construct: His (C)
Method: (§1) Compounds were dissolved in DMSO and preincubated with human recombinant C-terminal His-tagged LDHA (0.070 μg/mL) for 10 min at room temperature in assay buffer consisting 50 mM Tris, pH 7.5 and 100 mM NaCl in black walled, clear bottom, non-binding 96-well plates. Equal volumes of substrate solution containing 100 μM of pyruvate and 100 μM of NADH in assay buffer was added to each well (final concentration 0.035 μg/mL enzyme, 50 μM pyruvate, 50 μM NADH, and 1% DMSO). For human serum albumin (HSA) shift assay, the compounds were preincubated with the enzyme in assay buffer containing 20% HSA before substrate addition (final concentration 10% HSA). The reaction was monitored at 340 nm on a plate reader (Molecular Devices) in kinetic mode for 15 min. The rate of the reaction was determined by plotting absorbance vs time.

[3] = Liver and plasma concentrations in c57/bl6 mice; format: in vivo; conditions: 20 mg/kg PO, 4 h
Method: [The procedure below names another organism; the source says it served here with some conditions changed.] Plasma and liver (target organ) concentrations of test compounds were determined in rats following a single per os (PO) administration of the test compounds. Male Sprague Dawley rats (6-8 weeks of age, Charles River Labs) were fasted overnight and a single dose of test compounds (10 mg/kg; as a suspension in 0.5% methyl cellulose) was administered by PO gavage. Rats were then sacrificed at 4 and 24 h after administration of the test compounds, and plasma and liver tissue samples were collected. Liver tissue samples were homogenized in 5 volumes of water:acetonitrile (50/50; v/v) mixture using a bead mill homogenizer. Plasma and liver homogenate samples were processed by protein precipitation using acetonitrile and the concentrations of the test compounds were determined by liquid chromatography-tandem mass spectrometry (SciEx triple quad 5500+ with Exion UPLC).
Liver and plasma exposures at the 4 h and 24 h timepoints for the various compounds are described in Table 5 below. Measured compound concentrations are as follows: ++++>10 μM; 10 μM≥+++>5 μM; 5 μM≥++>1 μM; 1 μM≥+>0.25 μM; and 0.25 μM≥−.

[4] = biological target: T1, human recombinant C-terminal His-tagged LDHA; test: Human LDHA enzyme assay, human serum albumin (HSA) shift; format: biochemical; conditions: final concentration 10% HSA
Method: as §1

[5] = tested on: PH1 patients; conditions: cited from earlier work

Row | Structure (SMILES) | IC50 [1] [nM] | IC50 [2] [nM] | Measured Compound Concentrations Liver - 4 h ([3]; liver) | Measured Compound Concentrations Plasma - 4 h ([3]; plasma) | IC50 [4] [nM] | lowering of urinary oxalate [5]
1 | NS(=O)(=O)c1ccc(Cc2c(-c3ccc(F)cc3)nn(-c3nc(C(=O)O)cs3)c2CCC2CC2)cc1 [Example 6, 2-(5-(2-cyclopropylethyl)-3-(4-fluorophenyl)-4-(4-sulfamoylbenzyl)-1H-pyrazol-1-yl)thiazole-4-carboxylic acid] | 250 to 1000 | < 1 | ++* (5 μM≥++>1 μM) | −* (0.25 μM≥−) | 10 to 100 | –
2 | Cc1ncc(CO)c(CO)c1O [Pyridoxine] | – | – | – | – | – | approximately 30%
